Tests used:
b-Raf = b-Raf (Homo sapiens, UniProt P15056); assay: b-Raf biochemical assay; conditions: read-out: b-Raf IC-50
c-Raf FL = c-Raf FL (Homo sapiens, UniProt P04049); assay: c-Raf FL biochemical assay; conditions: read-out: c-Raf FL IC-50
[1] = tested on: Calu-6 (KRAS Q61K), HCT116 (KRAS G13D); assay: cell-based anti-proliferative assay, Calu-6 and HCT116; conditions: Homo sapiens; range over Calu-6 and HCT116; read-out: IC50, inhibition of proliferation
[2] = tested on: Calu-6 (KRAS Q61K) xenografts; assay: Calu-6 xenograft in nude mice; assay type: in vivo
Experimental: Female nude tumor bearing Calu6 mice, n=6 per group were randomized into treatment groups on day 17 following tumor implantation, when the average tumor volume was 180 mm3. […] Dosing volume was 10 mL/kg. Tumor volumes were collected at the time of randomization and twice weekly thereafter for the study duration.
(§1) Regressions were also achieved in a second human NSCLC model, NCI-H358, at the 200 mg/kg QD dose in mice and in the human ovarian Hey-A8 xenograft at doses as low as 30 mg/kg QD in mice.

[3] = tested on: Calu-6 (KRAS Q61K) xenografts; assay: Calu-6 xenograft in nude rats; assay type: in vivo
[4] = tested on: NCI-H358 (KRAS G12C) xenografts; assay: NCI-H358 xenograft in mice; assay type: in vivo
Experimental: SCID beige female tumor bearing NCI-H358 mice, n=8 per group, were randomized into 3 groups 14 days post tumor cell inoculation with an average tumor volume range of 259.44-262.47 mm^3.
Tumor volumes were measured by digital caliper 3 times a week and body weights of all animals were recorded through the course of treatment.
as §1

[5] = tested on: Hey-A8 (KRAS G12D, BRAF G464E) xenografts; assay: Hey-A8 ovarian xenograft in mice; assay type: in vivo
Experimental: as §1

[6] = tested on: SKMEL30 cells (NRAS Q61K melanoma cells); assay: SKMEL30 NRAS-mutant melanoma xenograft in nude mice; assay type: in vivo; conditions: for % regression: day 21 post-implant (9 days of treatment)
Experimental: […]. Mice were randomized into treatment groups on day 12 post implantation, when the average tumor volume was ˜200 mm^3. […] Treatments began on day 12 and continued until day 21 post implantation. Tumor volume and body weights were collected at the time of randomization and twice per week for the study duration. Tumor volume was determined by measurement with calipers and calculated using a modified ellipsoid formula, where tumor volume (TV) (mm^3)=[((1×w2)×3.14159))/6], where 1 is the longest axis of the tumor and w is perpendicular to 1. Mice were monitored for tumor growth, body weight and body condition. Animal well-being and behavior were monitored twice weekly. General health of mice was monitored daily. The anti-tumor activity was determined by assessing % T/C or % regression on day 21 post-implant (9 days of treatment).

H727 Model = assay: H727 model, KRASmt NSCLC xenograft; assay type: in vivo, mice; conditions: FIGS. 15A, 15B, 15C (H358, Calu6, H727 models); H727: 100 mg/kg daily oral, 14 days
[7] = tolerability in KRAS- and NRAS-mutant xenograft models (body weight); assay type: in vivo; conditions: all xenograft models
Experimental: as §1

[8] = tested on: non-small cell lung cancer (NSCLC); assay: Phase I dose finding study of Compound A, single agent; assay type: in vivo, human; conditions: one NSCLC subject, 1200 mg QD, preliminary
Experimental: Provisional doses for dose escalation can be found in the Table below. […]
In the dose expansion part, patients in Compound A single agent arm are treated with Compound A at the recommended dose and regimen selected based on the dose escalation data. This dose is expected to be safe and tolerated in adult patients in all indications included in the trial. The single agent arm consists of 3 distinct groups: KRAS- and/or BRAF-mutant NSCLC, KRAS- and/or BRAF-mutant ovarian cancer, and patients with other solid tumors (which may be advanced) harboring MAPK pathway alteration(s) such as relapsed/refractory melanoma after failure of BRAFi/MEKi combination therapy and NRAS-mutant melanoma patients.
This was further confirmed by preliminary results obtained from the clinical trial.

[9] = predicted human PK of Compound A
[10] = cell-based anti-proliferative assay, melanoma and NSCLC lines; conditions: Homo sapiens, read-out: IC50, inhibition of proliferation
[11] = tested on: advanced NRAS-mutant melanoma; conditions: cited from earlier work
[12] = patients with NRAS-mutant melanoma

Chain of b-Raf (P15056 2-766): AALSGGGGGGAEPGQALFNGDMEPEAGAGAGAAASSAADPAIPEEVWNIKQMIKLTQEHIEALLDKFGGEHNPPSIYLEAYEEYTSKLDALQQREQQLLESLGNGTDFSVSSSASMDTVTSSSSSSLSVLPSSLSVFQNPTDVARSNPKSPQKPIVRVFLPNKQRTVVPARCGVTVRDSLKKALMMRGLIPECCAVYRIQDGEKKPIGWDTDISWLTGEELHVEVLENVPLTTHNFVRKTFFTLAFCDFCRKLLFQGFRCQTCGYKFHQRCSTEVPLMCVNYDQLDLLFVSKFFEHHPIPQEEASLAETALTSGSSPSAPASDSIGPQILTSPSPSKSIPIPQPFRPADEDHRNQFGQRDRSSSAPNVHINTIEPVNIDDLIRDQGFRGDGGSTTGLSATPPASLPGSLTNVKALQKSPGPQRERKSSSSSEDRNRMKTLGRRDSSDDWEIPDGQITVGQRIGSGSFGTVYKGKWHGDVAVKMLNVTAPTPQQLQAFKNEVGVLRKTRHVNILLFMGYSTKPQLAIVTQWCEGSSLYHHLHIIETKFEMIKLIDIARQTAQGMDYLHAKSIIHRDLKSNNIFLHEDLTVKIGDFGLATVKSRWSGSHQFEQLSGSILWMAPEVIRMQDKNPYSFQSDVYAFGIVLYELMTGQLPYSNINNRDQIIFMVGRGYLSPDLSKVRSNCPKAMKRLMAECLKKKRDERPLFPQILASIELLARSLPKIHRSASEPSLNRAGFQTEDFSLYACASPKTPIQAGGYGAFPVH
Chain of c-Raf FL (P04049 whole entry): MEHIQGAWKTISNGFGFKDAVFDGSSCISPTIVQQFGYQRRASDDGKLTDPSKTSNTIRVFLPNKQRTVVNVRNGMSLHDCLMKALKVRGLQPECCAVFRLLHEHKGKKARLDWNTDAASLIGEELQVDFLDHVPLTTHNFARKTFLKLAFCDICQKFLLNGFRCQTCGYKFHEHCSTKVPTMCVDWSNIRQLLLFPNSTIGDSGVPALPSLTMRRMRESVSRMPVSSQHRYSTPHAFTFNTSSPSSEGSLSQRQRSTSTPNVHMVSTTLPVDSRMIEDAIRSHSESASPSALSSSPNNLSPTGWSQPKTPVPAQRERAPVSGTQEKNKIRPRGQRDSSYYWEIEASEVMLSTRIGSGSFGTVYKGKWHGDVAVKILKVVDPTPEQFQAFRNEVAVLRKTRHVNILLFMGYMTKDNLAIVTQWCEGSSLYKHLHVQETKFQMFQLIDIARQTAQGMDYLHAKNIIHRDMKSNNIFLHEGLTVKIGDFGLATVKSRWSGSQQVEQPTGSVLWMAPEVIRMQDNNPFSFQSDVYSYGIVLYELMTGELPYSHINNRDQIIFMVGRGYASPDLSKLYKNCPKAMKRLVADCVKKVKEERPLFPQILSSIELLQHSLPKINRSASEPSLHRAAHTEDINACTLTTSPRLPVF

Cc1ccc(NC(=O)c2ccnc(C(F)(F)F)c2)cc1-c1cc(OCCO)nc(N2CCOCC2)c1 [COMPOUND A, N-(3-(2-(2-hydroxyethoxy)-6-morpholinopyridin-4-yl)-4-methylphenyl)-2-(trifluoromethyl)isonicotinamide]
IC50 (b-Raf): 0.00073 µM
IC50 (c-Raf FL): 0.0002 µM
IC50 [1]: 0.2 to 1.2 µM
anti-tumor effect ([2]; 30 mg/kg QD, mice): Tumor stasis
anti-tumor effect ([2]; 100, 200, and 300 mg/kg once daily (QD), nude mice): regressions
anti-tumor effect ([2]; Calu-6 xenograft, dose not stated): tumor regression
anti-tumor effect ([2]; Calu-6 xenograft, dose not stated, listed as Compound A): tumor regressions
anti-tumor effect ([3]; 35 mg/kg QD, rats): Tumor stasis
anti-tumor effect ([3]; 75 and 150 mg/kg QD, nude rats): regressions
anti-tumor effect ([4]; 200 mg/kg QD, mice): Regressions
anti-tumor effect ([4]; NCI-H358 xenograft, dose not stated): tumor regression
anti-tumor effect ([4]; NCI-H358 xenograft, dose not stated, listed as Compound A): tumor regressions
anti-tumor effect ([5]; Hey-A8 xenograft, dose not stated): tumor regression
anti-tumor effect ([5]; Hey-A8 xenograft, dose not stated, listed as Compound A): tumor regressions
anti-tumor effect ([5]; doses as low as 30 mg/kg QD, mice): Regressions
% regression ([6]; 25 mg/kg bid): 48%
% regression ([6]; 100 mg/kg bid): 59%
tolerability ([6]; 25 and 100 mg/kg bid, body weight, toxicity signs, mortality): well tolerated
anti-tumor effect ([6]; SK-MEL-30 melanoma model, dose not stated): tumor regression
single agent activity in KRASmt NSCLC models (H727 Model): showed single agent activity
tolerability judged by body weight loss [7]: well tolerated
partial response according to RECIST [8]: −35%
predicted half-life [9]: ~9 h
IC50 [10]: 0.2 to 1.2 µM

Cn1cnc2c(F)c(Nc3ccc(Br)cc3F)c(C(=O)NOCCO)cc21 [binimetinib]
HR for PFS, in favor of binimetinib ([11]; binimetinib vs. dacarbazine): 0.62 (0.47-0.80)
discontinuation rate as a result of adverse events suspected to be related to study drug [11, 12]: 20%
median PFS (95% CI) [11, 12]: 2.8 (95% CI: 2.8-3.6)
overall response rate [11, 12]: 15%
overall survival (95% CI) [11, 12]: 11.0 (95% CI: 8.9-13.6) months

CN(C)/N=N/c1[nH]cnc1C(N)=O [dacarbazine]
discontinuation rate as a result of adverse events suspected to be related to study drug [11, 12]: 5%
